Where “and” joins values, the source holds several entries; their conditions need not be identical. Equal values may be shown once.
System: GEMS receptors with CBPA11 (BclXL–LD3 and BclXLhigh variants), STAT3-driven SEAP in HEK293T cells
Assay: GEMS SEAP reporter assay, CBPA11 (BclXLhigh, LD3-v and BclXL-v variants) with A-1155463
Type: cell-based
Design: key to Raw data (SEAP) / SEAP, replicate values / Raw data of Figure 5b / Raw data Figure 5e / Raw data of Independent repeat of CBPA11-v1 vs CBPA11-v1-LD3v3 / Raw data of Independent repeat of CBPA11-v3 vs CBPA11-v3-LD3v3 / Raw data of Figure 5b, CBPA11-v1-LD3v3 (SEAP reporter raw value, single replicate) / Raw data of Figure 5b, CBPA11-v1 (SEAP reporter raw value, single replicate): SEAP activity in U/L in culture supernatant
Text: To rationally design a CBP responding to a chemical input, we used BclXL as the druglow receptor, LD3 as the designed binder and a designed BclXL variant as the drughigh receptor (referred to as BclXLhigh) to construct a CBP responsive to BclXL inhibitors (Fig. 4a). To design BclXLhigh, we used a multistate design computational protocol described elsewhere[26] […] Thus, BclXLhigh-v(1–3) were chosen as the functional drughigh receptors, resulting in three A-1155463-controlled CBPs (referred to as CBPA11-v(1–3)) (Fig. 4c–e).
HEK293T cells were seeded in a 96-well plate 24 h before transfection. The transfection mix in each well consisted of 3 ng of constitutive human CMV promoter driven mammalian STAT3 expression vector (PhCMV-STAT3-pA), 30 ng of STAT3-induced reporter expression (OStat3-PhCMVmin-SEAP-pA) and 50 ng of expression vectors for each GEMS receptor chain (PSV40-IgK-(drughigh receptor)-EpoRm-IL-6RBm-pA and PSV40-IgK-(druglow receptor-GGGGSX3-LD3)-EpoRm-IL-6RBm-pA). For the specific drughigh receptor and druglow receptor used in the different cellular assays, they are indicated as wild type or with mutations. Then, plasmid DNA was mixed with 50 μl opti-MEM (Thermo Fisher) and 600 ng of polyethyleneimine (Polysciences, catalog no. 24765-1). For drug treatment experiments, drugs were added 12 h post-transfection and incubated with cells for 24 h before the SEAP reporter detection assay.
SEAP activity (U l^−1) in cell culture supernatants was quantified by kinetic measurements at 405 nm (1 minute per measurement for 30 cycles) of absorbance increase due to phosphatase-mediated hydrolysis of para-nitrophenyl phosphate (pNPP).
Binding affinities of SPR drug competition assays were calculated using three-parameter nonlinear regression in GraphPad Prism (v.8.3.0). Representative data of cell assays are presented as individual values and mean values (bars). n = 3 refers to biological replicates. All IC50 or EC50 values of cell assays reported were calculated using four-parameter nonlinear regression ± s.d. Bandpass features of cutoff concentrations and Bandwidth90% were estimated based on the curve fitted using bell-shaped curve nonlinear regression in GraphPad Prism (v.8.3.0). […]
Supplementary Figure 4: Design, screening and validation of BclXLhigh variants. a) Screening of BclXLhigh variants in the GEMS platform. […]
Dissociation constant measurement of BclXLhigh-v(1-3) and LD3. Equilibrium curves are fitted using […]
BclXLhigh-v1 (purple), BclXLhigh-v2 (blue), […]
a) Bcl2high-based bandpass filter designs were developed and to respond to different concentrations of […]
corresponding inhibitor. c) Screening of Bcl2high-based bandpass filter variants in the GEMS platform.
The designed binder LD3 was fused to the druglow-receptor (PSV40-IgK-Bcl2-LD3-EpoRm-IL-6RBm-pA) in one EpoR chain and Bcl2high variants with the insensitive Bcl2 (iBcl2) as control in the other EpoR chain (PSV40-IgK-Bcl2high-EpoRm-IL-6RBm-pA). HEK293T cells were transfected with indicated […]
the mean of six biological replicates ± s.d., overlaid with a scatter dot plot of the original data points.
(1 picture or pasted object on this page, not shown here)
Supplementary Figure 6: Binding affinities and drug resistances of Bcl2high-v(2,4,5) assessed by […]
a) Measurement of dissociation constants for Bcl2high-v(2,4,5) and LD3 interactions. Equilibrium curves […]
Bcl2high-v(2,4,5) measured by SPR. 5 μM of Bcl2 or indicated variants were mixed with 10 μM of […]
Bcl2high-v2 (red), Bcl2high-v4
Supplementary Figure 7: Screening of LD3 variants in CBPA11-v(1-3) and raw data of CBPA11-v(1,3) with LD3-v3 variant. a-c) Screening of LD3 and LD3-v(1-3) variants in complex with BclXL for more sensitive CBPA11-v1 (a), CBPA11-v2 (b), CBPA11-v3 (c) in the GEMS platform. The LD3 variants replaced the role of LD3 (PSV40-IgK-BclXL-LD3-v(1-3)-EpoRm-IL-6RBm-pA) in one EpoR chain and BclXLhigh-v(1-3) in the other EpoR chain (PSV40-IgK-BclXLhigh-V(1-3)-EpoRm-IL-6RBm-pA). HEK293T cells were transfected with […]

[1] = CBPA11-v3-BclXLv2, A-1155463 10000 nM
[2] = CBPA11-v3-LD3v3, A-1155463 1 nM
[3] = CBPA11-v3-LD3v3, A-1155463 3.18 nM
[4] = CBPA11-v3-LD3v3, A-1155463 10 nM
[5] = CBPA11-v3-LD3v3, A-1155463 31.8 nM
[6] = CBPA11-v3-LD3v3, A-1155463 100 nM
[7] = CBPA11-v3-LD3v3, A-1155463 318 nM
[8] = CBPA11-v3-LD3v3, A-1155463 1000 nM
[9] = CBPA11-v3-LD3v3, A-1155463 3180 nM

With `CN(C)CC#Cc1ccc(OCCCc2sc(N3CCc4cccc(C(=O)Nc5nc6ccccc6s5)c4C3)nc2C(=O)O)c(F)c1` [A-1155463] the “Normalized data Figure 5e” value (CBPA11-v3, A-1155463 1000 nM) was 81.2661 and 84.4942 and 85.1885, the “Normalized data of Figure 5b” value (CBPA11-v3, A-1155463 1000 nM) was 77.1257 and 88.7382 and 83.2133 and the “Raw data of Figure 5b” value (CBPA11-v3, A-1155463 1000 nM) was 414.242 and 467.209 and 437.572. The “Raw data of Independent repeat of CBPA11-v3 vs CBPA11-v3-LD3v3” value (“Raw data … vs CBPA11-v3-LD3v3” below) (CBPA11-v3, A-1155463 1000 nM) was 429.812 and 444.52 and 449.13, the “Raw data … vs CBPA11-v3-LD3v3” value (CBPA11-v3, A-1155463 3160 nM) was 188.374 and 250.833 and 293.834 and the “Normalized data Figure 5e” value (CBPA11-v3, A-1155463 3180 nM) was 35.6165 and 47.6783 and 55.7329. For the same compound, the “Normalized data of Figure 5b” value (CBPA11-v3, A-1155463 3180 nM) was 69.9852 and 73.5971 and 71.687, the “Raw data Figure 5e” value (CBPA11-v3, A-1155463 3180 nM) was 250.833 and 293.834 and the “Raw data of Figure 5b” value (CBPA11-v3, A-1155463 3180 nM) was 375.891 and 387.491 and 376.961. The “Normalized data of Figure 5b” value (CBPA11-v3, A-1155463 10000 nM) was 33.3676 and 35.0593 and 32.1412, the “Raw data Figure 5e” value (CBPA11-v3, A-1155463 10000 nM) was 69.4522 and 75.5808 and 84.1281 and the “Raw data of Figure 5b” value (CBPA11-v3, A-1155463 10000 nM) was 179.218 and 184.588 and 169.013. For the same compound, the “Normalized data Figure 5e” value (CBPA11-v3-BclXLv2, A-1155463 1 nM) was 21.2301 and 20.9054 and 25.1683, the “Normalized data Figure 5e” value (CBPA11-v3-BclXLv2, A-1155463 3.18 nM) was 36.7849 and 34.3141 and 39.7967 and the “Normalized data Figure 5e” value (CBPA11-v3-BclXLv2, A-1155463 10 nM) was 81.6336 and 75.0518 and 82.9089. The “Normalized data Figure 5e” value (CBPA11-v3-BclXLv2, A-1155463 31.8 nM) was 90.6446 and 90.5045 and 89.528, the “Normalized data Figure 5e” value (CBPA11-v3-BclXLv2, A-1155463 100 nM) was 100 and the “Normalized data Figure 5e” value (CBPA11-v3-BclXLv2, A-1155463 318 nM) was 94.0748 and 83.4986 and 97.6461. For the same compound, the “Normalized data Figure 5e” value (CBPA11-v3-BclXLv2, A-1155463 1000 nM) was 82.1634 and 70.2925 and 84.8015, the “Normalized data Figure 5e” value (CBPA11-v3-BclXLv2, A-1155463 3180 nM) was 56.5379 and 50.558 and 54.1989 and the “Normalized data Figure 5e” value [1] was 20.2076 and 19.0615 and 22.8054. For the same compound, the “Raw data Figure 5e” value [1] was 80.3813 and 74.5359 and 94.7265, the “Raw data … vs CBPA11-v3-LD3v3” value (CBPA11-v3-LD3v3, A-1155463 0.01 nM) was 22.6826 and 23.3953 and 23.1684 and the “Normalized data of Figure 5b” value [2] was 18.3263 and 15.7809 and 17.6916. The “Raw data of Figure 5b” value [2] was 15.5654 and 14.7861 and 18.9282, the “Raw data … vs CBPA11-v3-LD3v3” value [2] was 39.675 and 38.1934 and 39.412 and the “Raw data … vs CBPA11-v3-LD3v3” value (CBPA11-v3-LD3v3, A-1155463 3.16 nM) was 41.6393 and 41.4109 and 44.6799. For the same compound, the “Normalized data of Figure 5b” value [3] was 21.7199 and 21.0211 and 18.3728, the “Raw data of Figure 5b” value [3] was 18.4478 and 19.6959 and 19.6571 and the “Normalized data of Figure 5b” value [4] was 42.8939 and 42.6676 and 37.1804. For the same compound, the “Raw data of Figure 5b” value [4] was 36.4319 and 39.9778 and 39.7793, the “Raw data … vs CBPA11-v3-LD3v3” value [4] was 121.488 and 115.434 and 117.733 and the “Raw data … vs CBPA11-v3-LD3v3” value (CBPA11-v3-LD3v3, A-1155463 31.6 nM) was 175.057 and 186.814 and 198.727. For the same compound, the “Normalized data of Figure 5b” value [5] was 100 and 85.1231 and 93.5368, the “Raw data of Figure 5b” value [5] was 84.9348 and 79.7569 and 100.075 and the “Normalized data of Figure 5b” value [6] was 98.4645 and 100. The “Raw data of Figure 5b” value [6] was 83.6306, the “Raw data … vs CBPA11-v3-LD3v3” value [6] was 212.624 and 240.137 and 273.777 and the “Raw data … vs CBPA11-v3-LD3v3” value (CBPA11-v3-LD3v3, A-1155463 316 nM) was 197.006 and 197.385 and 185.58. The “Normalized data of Figure 5b” value [7] was 66.0363 and 74.9346 and 74.5506, the “Raw data of Figure 5b” value [7] was 56.0878 and 70.2108 and 79.7618 and the “Normalized data of Figure 5b” value [8] was 44.7107 and 39.495 and 38.775. For the same compound, the “Raw data of Figure 5b” value [8] was 37.975 and 37.0053 and 41.4854, the “Raw data … vs CBPA11-v3-LD3v3” value [8] was 89.9783 and 83.2851 and 69.3694 and the “Raw data … vs CBPA11-v3-LD3v3” value (CBPA11-v3-LD3v3, A-1155463 3160 nM) was 42.2434 and 33.2038 and 38.7983. For the same compound, the “Normalized data of Figure 5b” value [9] was 16.4914 and 15.345 and 15.1706 and the “Raw data of Figure 5b” value [9] was 14.007 and 14.3777 and 16.2311.
